The target in one assay is T1, human OX1 receptors (Homo sapiens, UniProt O43613).
T1 sequence (O43613 1-425): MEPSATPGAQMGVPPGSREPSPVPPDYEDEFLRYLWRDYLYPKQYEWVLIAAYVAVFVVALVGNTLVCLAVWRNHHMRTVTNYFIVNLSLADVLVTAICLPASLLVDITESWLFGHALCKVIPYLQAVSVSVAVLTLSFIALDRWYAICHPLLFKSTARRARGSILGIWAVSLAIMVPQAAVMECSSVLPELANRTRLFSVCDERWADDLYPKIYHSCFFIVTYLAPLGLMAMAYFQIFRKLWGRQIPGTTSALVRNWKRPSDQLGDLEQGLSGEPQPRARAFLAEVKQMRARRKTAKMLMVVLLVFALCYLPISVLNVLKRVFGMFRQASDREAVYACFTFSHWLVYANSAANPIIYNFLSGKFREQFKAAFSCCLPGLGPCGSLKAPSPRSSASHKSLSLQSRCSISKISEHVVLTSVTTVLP
In words: Calcium mobilization Ke assay. The assay is classed as cell-based. The note with it: for OX2/OX1: ratio of Ke OX2 to Ke OX1 (table column). Background: A change in cytosolic calcium serves as a functional read-out for many receptors and channels.

The next assay deals with T2, human OX2 receptors (Homo sapiens, UniProt O43614).
T2 sequence (O43614 1-444): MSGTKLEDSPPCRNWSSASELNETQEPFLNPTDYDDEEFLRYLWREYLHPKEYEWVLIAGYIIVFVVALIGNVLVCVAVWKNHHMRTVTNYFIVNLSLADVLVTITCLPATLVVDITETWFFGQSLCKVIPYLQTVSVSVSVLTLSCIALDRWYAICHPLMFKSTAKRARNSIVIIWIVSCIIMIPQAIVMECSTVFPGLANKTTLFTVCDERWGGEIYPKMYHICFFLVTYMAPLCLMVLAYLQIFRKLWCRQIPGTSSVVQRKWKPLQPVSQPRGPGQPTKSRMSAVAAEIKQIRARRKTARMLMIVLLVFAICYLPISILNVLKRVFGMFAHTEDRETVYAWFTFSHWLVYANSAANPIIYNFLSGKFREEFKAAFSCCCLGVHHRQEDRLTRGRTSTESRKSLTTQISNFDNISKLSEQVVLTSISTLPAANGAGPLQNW
In words: Calcium mobilization Ke assay. The assay is classed as cell-based.

For `COc1cc2c(cc1OC)C(Cc1cccc([N+](=O)[O-])c1)N(CC(=O)NCc1ccccc1)CC2` (centres unmarked) [Compound 42, N-Benzyl-2-{6,7-dimethoxy-1-[(3-nitrophenyl)methyl]-1,2,3,4-tetrahydroisoquinolin-2-yl}acetamide], the OX2/OX1 on human OX1 receptors is under 0.12. Moreover, the Kb on human OX2 receptors came to 1.2 ± 0.16 µM.

For the compound `COc1cc2c(cc1OC)C(Cc1cccc(N(C)C)c1)N(CC(=O)NCc1ccccc1)CC2` (centres unmarked) [Compound 44, N-Benzyl-2-(1-{[3-(dimethylamino)phenyl]methyl}-6,7-dimethoxy-1,2,3,4-tetrahydroisoquinolin-2-yl)acetamide], the OX2/OX1 on human OX1 receptors was 8.8. In addition, the Kb on human OX2 receptors was 0.66 ± 0.16 µM.

`COc1cc2c(cc1OC)C(Cc1ccc3ncccc3c1)N(CC(=O)NCc1ccccc1)CC2` (centres unmarked) [Compound 55, N-Benzyl-2-[6,7-dimethoxy-1-(quinolin-6-ylmethyl)-1,2,3,4-tetrahydroisoquinolin-2-yl]acetamide]: the OX2/OX1 at human OX1 receptors is listed as over 23. For the same compound, the Kb at human OX2 receptors was over 10 µM.

Regarding `CCCCCCOc1ccc(CC2c3cc(OC)c(OC)cc3CCN2CC(=O)NCc2ccccc2)cc1OC` (centres unmarked) [Compound 14, N-Benzyl-2-(1-{[4-(hexyloxy)-3-methoxyphenyl]methyl}-6,7-dimethoxy-1,2,3,4-tetrahydroisoquinolin-2-yl)acetamide], the OX2/OX1 on human OX1 receptors is over 83. Moreover, the Kb on human OX2 receptors was over 10 µM.

With `COc1cc2c(cc1OC)C(Cc1ccc(OC(C)C)cc1)N(CC(=O)NCc1ccccc1)CC2` (centres unmarked) [Compound 46, N-Benzyl-2-(6,7-dimethoxy-1-{[4-(propan-2-yloxy)phenyl]methyl}-1,2,3,4-tetrahydroisoquinolin-2-yl)acetamide], on human OX1 receptors, the OX2/OX1 is over 20. In addition, the Kb at human OX2 receptors was over 10 µM.

Consider `COc1cc2c(cc1OC)C(Cc1ccc3ccccc3c1)N(CC(=O)NCc1ccccc1)CC2` (centres unmarked) [Compound 54, N-Benzyl-2-[6,7-dimethoxy-1-(naphthalen-2-ylmethyl)-1,2,3,4-tetrahydroisoquinolin-2-yl]acetamide], for which, on human OX1 receptors, the OX2/OX1 is recorded as 6.6. Besides, the Kb on human OX2 receptors worked out at 1.62 ± 0.23 µM.

For `COc1cc(CC2c3cc(OC)c(OC)cc3CCN2CC(=O)NCc2ccccc2)ccc1O` (centres unmarked) [Compound 12, N-Benzyl-2-{1-[(4-hydroxy-3-methoxyphenyl)methyl]-6,7-dimethoxy-1,2,3,4-tetrahydroisoquinolin-2-yl}acetamide], the OX2/OX1 at human OX1 receptors is over 24. Moreover, the Kb on human OX2 receptors was over 10 µM.

Consider `COc1ccc(CC2c3cc(OC)c(OC)cc3CCN2CC(=O)NCc2ccccc2)cc1NCc1ccccc1` (centres unmarked) [Compound 33, N-Benzyl-2-(1-{[3-(benzylamino)-4-methoxyphenyl]methyl}-6,7-dimethoxy-1,2,3,4-tetrahydroisoquinolin-2-yl)acetamide], for which the “OX1 antagonist activity in words” value on human OX1 receptors (at concentrations up to 10 μM) is recorded as “no activity”.

For the compound `COc1cc2c(cc1OC)C(Cc1ccc(OCc3ccccc3)c(OC)c1)N(CC(=O)NCc1ccccc1)CC2` (centres unmarked) [Compound 18, N-Benzyl-2-(1-{[4-(benzyloxy)-3-methoxyphenyl]methyl}-6,7-dimethoxy-1,2,3,4-tetrahydroisoquinolin-2-yl)acetamide], the “decrease in OX1 potency compared to 11” value on human OX1 receptors amounted to 2 fold.

As for `COc1cc2c(cc1OC)C(Cc1ccc(C)c(C)c1)N(CC(=O)NCc1ccccc1)CC2` (centres unmarked) [Compound 53, N-Benzyl-2-{1-[(3,4-dimethylphenyl)methyl]-6,7-dimethoxy-1,2,3,4-tetrahydroisoquinolin-2-yl}acetamide], the Kb at human OX2 receptors is over 10 µM.

Regarding `COc1cc2c(cc1OC)C(Cc1cccc(OC(C)C)c1)N(CC(=O)NCc1ccccc1)CC2` (centres unmarked) [Compound 41, N-Benzyl-2-(6,7-dimethoxy-1-{[3-(propan-2-yloxy)phenyl]methyl}-1,2,3,4-tetrahydroisoquinolin-2-yl)acetamide], on human OX1 receptors, the “decrease in OX1 potency compared to 11” value is ~ 7 fold and the OX2/OX1 is over 6.8. Also, the Kb at human OX2 receptors was over 10 µM.

In the case of `COc1cc2c(cc1OC)C(C(C)c1ccccc1)N(CC(=O)NCc1ccccc1)CC2` (centres unmarked) [Compound 56, N-Benzyl-2-[6,7-dimethoxy-1-(1-phenylethyl)-1,2,3,4-tetrahydroisoquinolin-2-yl]acetamide], on human OX2 receptors, the Kb was over 10 µM.

As to `CCCCOc1ccc(CC2c3cc(OC)c(OC)cc3CCN2CC(=O)NCc2ccccc2)cc1OC` (centres unmarked) [Compound 13, N-Benzyl-2-{1-[(4-butoxy-3-methoxyphenyl)methyl]-6,7-dimethoxy-1,2,3,4-tetrahydroisoquinolin-2-yl}acetamide], the OX2/OX1 on human OX1 receptors amounted to 42. Besides, at human OX2 receptors, the Kb came to 2 ± 0.86 µM.

`COc1cc2c(cc1OC)C(Cc1ccc(OS(=O)(=O)c3ccccc3)c(OC)c1)N(CC(=O)NCc1ccccc1)CC2` (centres unmarked) [Compound 23, 4-({2-[(Benzylcarbamoyl)methyl]-6,7-dimethoxy-1,2,3,4-tetrahydroisoquinolin-1-yl}methyl)-2-methoxyphenyl benzenesulfonate]: the “decrease in OX1 potency compared to 11” value on human OX1 receptors is on record as ~ 9 fold.

As for `CCCC(=O)Oc1ccc(CC2c3cc(OC)c(OC)cc3CCN2CC(=O)NCc2ccccc2)cc1OC` (centres unmarked) [Compound 16, 4-({2-[(Benzylcarbamoyl)methyl]-6,7-dimethoxy-1,2,3,4-tetrahydroisoquinolin-1-yl}methyl)-2-methoxyphenyl butanoate], on human OX1 receptors, the OX2/OX1 worked out at 48. In addition, at human OX2 receptors, the Kb turned out to be 2.08 ± 0.6 µM.

For the compound `CCN(CC)c1cc(CC2c3cc(OC)c(OC)cc3CCN2CC(=O)NCc2ccccc2)ccc1OC` (centres unmarked) [Compound 30, N-Benzyl-2-(1-{[3-(diethylamino)-4-methoxyphenyl]methyl}-6,7-dimethoxy-1,2,3,4-tetrahydroisoquinolin-2-yl)acetamide], the OX2/OX1 on human OX1 receptors is on record as over 48. Also, the Kb at human OX2 receptors was over 10 µM.

With `COc1cc2c(cc1OC)C(Cc1ccc(OC)c([N+](=O)[O-])c1)N(CC(=O)NCc1ccccc1)CC2` (centres unmarked) [Compound 26, N-Benzyl-2-{6,7-dimethoxy-1-[(4-methoxy-3-nitrophenyl)methyl]-1,2,3,4-tetrahydroisoquinolin-2-yl}acetamide], the “decrease in OX1 potency compared to 11” value at human OX1 receptors was ~ 7 fold.

As for `CCCOc1ccc(CC2c3cc(OC)c(OC)cc3CCN2CC(=O)NCc2ccccc2)cc1` (centres unmarked) [Compound 45, N-Benzyl-2-{6,7-dimethoxy-1-[(4-propoxyphenyl)methyl]-1,2,3,4-tetrahydroisoquinolin-2-yl}acetamide], the OX2/OX1 at human OX1 receptors was over 27. For the same compound, at human OX2 receptors, the Kb was over 10 µM.

Turning to `COc1cc2c(cc1OC)C(Cc1ccc(N(C)C)cc1)N(CC(=O)NCc1ccccc1)CC2` (centres unmarked) [Compound 48, N-Benzyl-2-(1-{[4-(dimethylamino)phenyl]methyl}-6,7-dimethoxy-1,2,3,4-tetrahydroisoquinolin-2-yl)acetamide], the OX2/OX1 at human OX1 receptors is on record as over 40. The Kb at human OX2 receptors was over 10 µM.

For `COc1cc2c(cc1OC)C(Cc1cc(OC)c(OC)c(OC)c1)N(CC(=O)NCc1ccccc1)CC2` (centres unmarked) [Compound 52, N-Benzyl-2-{6,7-dimethoxy-1-[(3,4,5-trimethoxyphenyl)methyl]-1,2,3,4-tetrahydroisoquinolin-2-yl}acetamide], the Kb at human OX2 receptors was over 10 µM.

Regarding `COc1ccc(CCC2c3cc(OC)c(OC)cc3CCN2CC(=O)NCc2ccccc2)cc1OC` (centres unmarked) [Compound 60, N-Benzyl-2-{1-[2-(3,4-dimethoxyphenyl)ethyl]-6,7-dimethoxy-1,2,3,4-tetrahydroisoquinolin-2-yl}acetamide], the Kb on human OX2 receptors is over 10 µM.

The values above are taken from article PMC4400266 (ACS chemical neuroscience, 2015).
